Measured values: PubChem BioAssay AID2060486 (Molecular Pharmacology Branch, DTP, NCI, 2025)

Test system: IGROV1 complex spheroids (HUVEC, MSC), viability % test/control
Assay: Anticancer human tumor IGROV1 cell line growth inhibition [GQUAD];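 note: spheroids exposed to compounds for 7 days before readout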;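 for viability, T/C: 100% = DMSO vehicle control viability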
Conditions: for IC50: curve of first compound; for viability, T/C: stronger effect = lower value
Summary of the method: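 Viability of tumor cells grown as complex spheroids with endothelial and stromal cells, exposed to drug combinations. Top concentration at or near clinical Cmax (else 10 microM), diluted in half-log increments.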

[1] = second compound 0.0316 µM, first compound 0.0316 µM
[2] = second compound 0.0316 µM, first compound 0.1 µM
[3] = second compound 0.0316 µM, first compound 0.316 µM
[4] = second compound 0.0316 µM, first compound 1 µM
[5] = second compound 0.0316 µM, first compound 3.16 µM
[6] = second compound 0.0316 µM, first compound 10 µM
[7] = second compound 0.1 µM, first compound 0.0316 µM
[8] = second compound 0.1 µM, first compound 0.1 µM
[9] = second compound 0.1 µM, first compound 0.316 µM
[10] = second compound 0.1 µM, first compound 1 µM
[11] = second compound 0.1 µM, first compound 3.16 µM
[12] = second compound 0.1 µM, first compound 10 µM
[13] = second compound 0.316 µM, first compound 0.0316 µM
[14] = second compound 0.316 µM, first compound 0.1 µM
[15] = second compound 0.316 µM, first compound 0.316 µM
[16] = second compound 0.316 µM, first compound 1 µM
[17] = second compound 0.316 µM, first compound 3.16 µM
[18] = second compound 0.316 µM, first compound 10 µM
[19] = second compound 1 µM, first compound 0.0316 µM
[20] = second compound 1 µM, first compound 0.1 µM
[21] = second compound 1 µM, first compound 0.316 µM
[22] = second compound 1 µM, first compound 1 µM
[23] = second compound 1 µM, first compound 3.16 µM
[24] = second compound 1 µM, first compound 10 µM
[25] = second compound 3.16 µM, first compound 0.0316 µM
[26] = second compound 3.16 µM, first compound 0.1 µM
[27] = second compound 3.16 µM, first compound 0.316 µM
[28] = second compound 3.16 µM, first compound 1 µM
[29] = second compound 3.16 µM, first compound 3.16 µM
[30] = second compound 3.16 µM, first compound 10 µM
[31] = second compound 10 µM, first compound 0.0316 µM
[32] = second compound 10 µM, first compound 0.1 µM
[33] = second compound 10 µM, first compound 0.316 µM
[34] = second compound 10 µM, first compound 1 µM
[35] = second compound 10 µM, first compound 3.16 µM
[36] = second compound 10 µM, first compound 10 µM

C=CC(=O)N1CCN(c2nc(=O)n(-c3c(C)ccnc3C(C)C)c3nc(-c4c(O)cccc4F)c(F)cc23)C(C)C1 (stereo unspecified) + CN(C)c1ccc(Nc2c3ccc(NC(=O)CCN4CCCC4)cc3nc3cc(NC(=O)CCN4CCCC4)ccc23)cc1
IC50 (second compound 0.0316 µM): > 10000 nM
IC50 (second compound 0.1 µM): > 10000 nM
IC50 (second compound 0.316 µM): > 10000 nM
IC50 (second compound 1 µM): > 10000 nM
IC50 (second compound 3.16 µM): > 10000 nM
IC50 (second compound 10 µM): 4880 nM
viability, T/C [1]: 99.1%
viability, T/C [2]: 100%
viability, T/C [3]: 106%
viability, T/C [4]: 90.7%
viability, T/C [5]: 104%
viability, T/C [6]: 90.5%
viability, T/C [7]: 99.7%
viability, T/C [8]: 90.3%
viability, T/C [9]: 96.3%
viability, T/C [10]: 88.5%
viability, T/C [11]: 111%
viability, T/C [12]: 104%
viability, T/C [13]: 91.5%
viability, T/C [14]: 75.2%
viability, T/C [15]: 88.4%
viability, T/C [16]: 83.3%
viability, T/C [17]: 111%
viability, T/C [18]: 83.3%
viability, T/C [19]: 90.1%
viability, T/C [20]: 70.3%
viability, T/C [21]: 93.7%
viability, T/C [22]: 108%
viability, T/C [23]: 106%
viability, T/C [24]: 95.1%
viability, T/C [25]: 86%
viability, T/C [26]: 86.4%
viability, T/C [27]: 101%
viability, T/C [28]: 99.5%
viability, T/C [29]: 99.5%
viability, T/C [30]: 77.8%
viability, T/C [31]: 62.6%
viability, T/C [32]: 58.7%
viability, T/C [33]: 67.2%
viability, T/C [34]: 71.8%
viability, T/C [35]: 64.1%
viability, T/C [36]: 26.3%

CC(C)n1c(=O)n(C)c2cnc3cc(F)c(-c4ccc(OCCCN5CCCCC5)nc4)cc3c21 + CN(C)c1ccc(Nc2c3ccc(NC(=O)CCN4CCCC4)cc3nc3cc(NC(=O)CCN4CCCC4)ccc23)cc1
IC50 (second compound 0.0316 µM): 3960 nM
IC50 (second compound 0.1 µM): 3780 nM
IC50 (second compound 0.316 µM): 4030 nM
IC50 (second compound 1 µM): 1500 nM
IC50 (second compound 3.16 µM): < 31.6 nM
IC50 (second compound 10 µM): < 31.6 nM
viability, T/C [1]: 91.8%
viability, T/C [2]: 70.1%
viability, T/C [3]: 90.8%
viability, T/C [4]: 72.2%
viability, T/C [5]: 59.2%
viability, T/C [6]: 15.5%
viability, T/C [7]: 93.3%
viability, T/C [8]: 59.2%
viability, T/C [9]: 87.3%
viability, T/C [10]: 72%
viability, T/C [11]: 55.2%
viability, T/C [12]: 18%
viability, T/C [13]: 86.1%
viability, T/C [14]: 69.6%
viability, T/C [15]: 83.4%
viability, T/C [16]: 74.8%
viability, T/C [17]: 58.9%
viability, T/C [18]: 16.7%
viability, T/C [19]: 54.6%
viability, T/C [20]: 53.1%
viability, T/C [21]: 58.9%
viability, T/C [22]: 55.6%
viability, T/C [23]: 40%
viability, T/C [24]: 13%
viability, T/C [25]: 49.7%
viability, T/C [26]: 39.4%
viability, T/C [27]: 27%
viability, T/C [28]: 21.9%
viability, T/C [29]: 19.8%
viability, T/C [30]: 10.7%
viability, T/C [31]: 18.3%
viability, T/C [32]: 18.8%
viability, T/C [33]: 11.4%
viability, T/C [34]: 10.5%
viability, T/C [35]: 7.56%
viability, T/C [36]: 3.54%

CC1COCCN1c1cc(-c2ccnn2C)c2ccnc(-c3ccn[nH]3)c2n1 (stereo unspecified) + CN(C)c1ccc(Nc2c3ccc(NC(=O)CCN4CCCC4)cc3nc3cc(NC(=O)CCN4CCCC4)ccc23)cc1
IC50 (second compound 0.0316 µM): 50.7 nM
IC50 (second compound 0.1 µM): 49.6 nM
IC50 (second compound 0.316 µM): 37.1 nM
IC50 (second compound 1 µM): 43 nM
IC50 (second compound 3.16 µM): < 31.6 nM
IC50 (second compound 10 µM): < 31.6 nM
viability, T/C [1]: 66.2%
viability, T/C [2]: 26.3%
viability, T/C [3]: 12.3%
viability, T/C [4]: 7.64%
viability, T/C [5]: 4.82%
viability, T/C [6]: 3.77%
viability, T/C [7]: 66.3%
viability, T/C [8]: 24.2%
viability, T/C [9]: 11.8%
viability, T/C [10]: 7.54%
viability, T/C [11]: 5.16%
viability, T/C [12]: 3.61%
viability, T/C [13]: 54.9%
viability, T/C [14]: 21.5%
viability, T/C [15]: 9.35%
viability, T/C [16]: 6.62%
viability, T/C [17]: 5.67%
viability, T/C [18]: 3.51%
viability, T/C [19]: 57.8%
viability, T/C [20]: 28.5%
viability, T/C [21]: 11.7%
viability, T/C [22]: 7.28%
viability, T/C [23]: 5.79%
viability, T/C [24]: 3.85%
viability, T/C [25]: 44%
viability, T/C [26]: 18.2%
viability, T/C [27]: 11.2%
viability, T/C [28]: 7.75%
viability, T/C [29]: 4.98%
viability, T/C [30]: 3.18%
viability, T/C [31]: 20.6%
viability, T/C [32]: 10.5%
viability, T/C [33]: 9.22%
viability, T/C [34]: 5.87%
viability, T/C [35]: 5.04%
viability, T/C [36]: 3.72%
